Results on four compounds are retold here after US20080176339A1, “NEUTRAL LABELING REACTANTS AND CONJUGATES DERIVED THEREOF” (WALLAC OY, priority 2006, published 2008).

One data set deals with antiserum. The data set can be described thus: Performance of thyroxine tracers in DELFIA based T4-assay compared to AutoDELFIA Neonatal T4 kit. Conditions: up to one week in instrument-like conditions. Here is the method: The assay concentrations of the antiserum were optimized for each tracer individually, and the analytical sensitivities of the optimized standard curves were defined. The correlation between the methods were studied with a small sample panel. The on-board stability was tested up to one week in instrument-like conditions. Sensitivity to the interference of EDTA-containing samples was also studied.

The conditions of data set [1]: in vivo; cited from earlier work.
The nature of data set [2]: Stabilities of chelates in DELFIA Enhancement Solution and DELFIA Inducer (dissociation of europium followed by time-resolved fluorometer). It is filed as physicochemical. Conditions: RT (25° C.). On the procedure: The chelates (ca 1 mg) were dissolved either in Inducer or Enhanchement Solution. The dissociation of the europium at 25° C. were followed using a time-resolved fluorometer. The results are shown below

Turning to `NC(=O)CN(CCN(CC(=O)O)CC(Cc1ccc(NC(=S)NCCCCCC(=O)NC(Cc2cc(I)c(Oc3cc(I)c(O)c(I)c3)c(I)c2)C(=O)O)cc1)N(CC(N)=O)CC(=O)O)CC(=O)O` (centres unmarked) [Compound 13], the On board stability result in the data set with antiserum is “Better”.

`O=C(O)CN(CCN(CC(=O)O)CC(Cc1ccc(NC(=S)NCCCCCC(=O)NC(Cc2cc(I)c(Oc3cc(I)c(O)c(I)c3)c(I)c2)C(=O)O)cc1)N(CC(=O)O)CC(=O)O)CC(=O)O` (centres unmarked) [Compound T4-DTPA]: in the data set with antiserum, the On board stability result is “Better”.

For the compound `O=C([O-])CN(CCN(CC(=O)[O-])CC(=O)O)CCN(CC(=O)[O-])CC(=O)O.[Gd+3]` [Gd-DTPA], the “Crossing of intact blood-brain barrier” value in data set [1] is reported as “does not cross an intact blood-brain barrier”.

On to “Europium Chelate of 2-(4-aminobenzyl)-1,7-bis(aminocarbonylmethyl)-1,4,7-tris(carboxymethyl)-1,4,7-triazaheptane [Compound 10]”, for which the “Approximate time needed for complete dissociation, Enhancer” value in data set [2] (DELFIA Enhancement Solution) came to 30 min. Further, the “Approximate time needed for complete dissociation, Inducer” value in data set [2] (DELFIA Inducer) is less than 5 min.
